Laboratory results: US12377106B2, “Piperidinylpyrazine-carboxamide compounds for treating and preventing cancer and for degrading BTK” (NURIX THERAPEUTICS, INC., priority 2021, dated 2025)
“Also recorded” adds a separate entry of the source.

Columns and labels:
Ikaros = target: T1, Ikaros (Homo sapiens, UniProt Q13422+Q96SW2); assay: Ikaros degradation in the patient; assay type: in vivo; settings: DLBCL patient, 300 mg
T1 construct: peripheral blood was obtained from all patients for baseline and post Compound 149 therapy assessment of BTK and Ikaros degradation; endogenous in cells; host or cells: peripheral blood cells of a DLBCL patient
T1 sequence (Q13422 whole entry): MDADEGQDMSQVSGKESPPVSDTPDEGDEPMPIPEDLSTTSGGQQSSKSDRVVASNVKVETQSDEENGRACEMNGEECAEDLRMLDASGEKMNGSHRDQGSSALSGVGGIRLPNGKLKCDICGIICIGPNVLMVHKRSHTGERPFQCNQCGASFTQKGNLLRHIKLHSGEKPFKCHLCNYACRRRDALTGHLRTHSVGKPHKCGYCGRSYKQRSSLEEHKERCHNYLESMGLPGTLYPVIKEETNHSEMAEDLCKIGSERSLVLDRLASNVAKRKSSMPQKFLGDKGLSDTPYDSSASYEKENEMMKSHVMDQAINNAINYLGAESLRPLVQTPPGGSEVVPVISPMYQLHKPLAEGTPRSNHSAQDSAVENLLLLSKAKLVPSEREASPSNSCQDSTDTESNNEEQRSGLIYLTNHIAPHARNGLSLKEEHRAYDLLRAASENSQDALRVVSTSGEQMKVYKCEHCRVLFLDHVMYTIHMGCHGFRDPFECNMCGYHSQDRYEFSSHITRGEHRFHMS
T1 sequence (Q96SW2 whole entry): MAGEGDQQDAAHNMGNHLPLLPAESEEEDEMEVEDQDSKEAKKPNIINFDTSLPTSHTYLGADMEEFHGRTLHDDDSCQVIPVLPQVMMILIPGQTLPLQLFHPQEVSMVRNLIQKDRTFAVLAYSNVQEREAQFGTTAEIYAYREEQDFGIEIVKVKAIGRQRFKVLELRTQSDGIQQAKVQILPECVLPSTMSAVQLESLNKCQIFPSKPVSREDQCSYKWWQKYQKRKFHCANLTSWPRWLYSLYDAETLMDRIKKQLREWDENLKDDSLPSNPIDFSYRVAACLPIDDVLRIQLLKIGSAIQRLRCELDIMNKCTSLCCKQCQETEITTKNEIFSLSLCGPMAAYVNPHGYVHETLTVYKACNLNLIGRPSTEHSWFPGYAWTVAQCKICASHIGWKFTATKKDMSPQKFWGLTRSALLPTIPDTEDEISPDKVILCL
T1 sequence (Q16531 whole entry partner): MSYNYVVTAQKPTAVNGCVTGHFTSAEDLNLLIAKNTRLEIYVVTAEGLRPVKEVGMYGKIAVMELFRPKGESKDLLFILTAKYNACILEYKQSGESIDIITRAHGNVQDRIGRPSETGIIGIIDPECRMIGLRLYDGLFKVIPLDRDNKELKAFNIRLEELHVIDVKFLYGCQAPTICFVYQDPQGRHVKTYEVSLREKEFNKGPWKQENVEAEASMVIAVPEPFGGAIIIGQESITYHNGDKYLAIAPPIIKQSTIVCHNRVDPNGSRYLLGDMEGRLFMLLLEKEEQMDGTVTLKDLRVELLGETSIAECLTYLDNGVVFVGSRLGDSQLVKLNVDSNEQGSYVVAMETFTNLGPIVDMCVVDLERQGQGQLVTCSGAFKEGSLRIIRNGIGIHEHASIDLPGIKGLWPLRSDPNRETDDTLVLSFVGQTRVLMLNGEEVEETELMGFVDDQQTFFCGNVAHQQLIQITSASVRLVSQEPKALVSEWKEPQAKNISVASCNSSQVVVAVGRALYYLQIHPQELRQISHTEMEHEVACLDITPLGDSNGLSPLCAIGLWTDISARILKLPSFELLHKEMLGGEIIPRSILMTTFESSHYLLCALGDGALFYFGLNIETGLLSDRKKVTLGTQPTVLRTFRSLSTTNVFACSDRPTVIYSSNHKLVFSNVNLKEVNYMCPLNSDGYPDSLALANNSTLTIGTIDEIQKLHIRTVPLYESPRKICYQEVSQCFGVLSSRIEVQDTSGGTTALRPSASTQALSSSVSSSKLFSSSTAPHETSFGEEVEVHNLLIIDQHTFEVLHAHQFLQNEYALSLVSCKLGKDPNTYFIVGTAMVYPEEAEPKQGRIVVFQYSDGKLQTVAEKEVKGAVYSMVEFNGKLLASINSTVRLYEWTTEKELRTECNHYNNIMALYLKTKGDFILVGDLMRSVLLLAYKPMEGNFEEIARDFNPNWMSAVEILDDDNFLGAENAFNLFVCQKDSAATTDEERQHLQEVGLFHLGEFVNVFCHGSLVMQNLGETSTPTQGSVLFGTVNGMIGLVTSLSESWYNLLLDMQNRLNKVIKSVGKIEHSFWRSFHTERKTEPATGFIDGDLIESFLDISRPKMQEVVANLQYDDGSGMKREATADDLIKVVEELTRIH
Procedure: Following informed consent, peripheral blood was obtained from all patients for baseline and post Compound 149 therapy assessment of BTK and Ikaros degradation. Patient blood (5 mL) was drawn and immediately fixed in a 5 mL CytoChex™ BCT tube and stored at ambient temperature until assessment via flow cytometry. Blood samples were analyzed within 3 days post sample collection at Precision for Medicine. Additional blood was also drawn into 8 mL BD Vacutainer® CPT™ Cell Preparation Tube with Sodium Citrate. Peripheral blood mononuclear cells (PBMCs) were processed, and viability frozen according to manufacturer's protocol. The patient's response was checked at 8 weeks and 16 weeks. […] Gradual BTK degradation was observed until day 8 day of receiving the 300 mg dose of Compound 149, wherein the maximum BTK degradation was achieved on the 8th day. Consistent with its design, Compound 149 also degraded Ikaros and Aiolos which is responsible for the compound's immunomodulatory activity. […] In the 16-week assessment image, maximum standard uptake value (Max SUV) reduced from 17.6 at screening to 2.5 at the 16-week assessment time with the Deauville five-point scale (5PS; Barrington et al., 2010, Eur J Nucl Med Mol Imaging 37 (10): 1824-33) reducing from 5 to 2.

[1] = test system: novel BTK mutations emerging post BTKi-treatment; assay: Degradation of novel BTK mutations emerging post BTKi-treatment (FIG. 6); assay type: cell-based; settings: multiple novel BTK mutations emerging post BTKi-treatment
[2] = Safety and tolerability in patients with relapsed and refractory B cell malignancies; assay type: in vivo; settings: for Anemia, Grade ≥ 3 / Clostridium difficile colitis, Grade ≥ 3 / Clostridium difficile infection, Grade ≥ 3 / Cognitive disorder, Grade ≥ 3 / Dyspnea, Grade ≥ 3 / Hypertension, Grade ≥ 3 / Neutropenia, Grade ≥ 3 / Pain in extremity, Grade ≥ 3 / Upper resp. tract infection, Grade ≥ 3: all patients
Procedure: Compound 149 was administered to human patients in a Phase 1a/lb trial investigating safety and tolerability in relapsed and refractory B cell malignancies. Compound 149 was administered as a once daily oral dose first in an accelerated Phase 1a dose escalation starting at 100 mg on Day 1. The first dose levels are explored in a single patient cohort until a grade 2 adverse event has been observed. Thereafter, a traditional 3+3 escalation design is used. This 100 mg starting dose was predicted to provide similar exposure as that observed in non-human primate studies. Once a dose is selected based on all safety, efficacy, pharmacokinetic, and pharmacodynamic data available, the trial will expand in up to five expansion cohorts.
(§1) Patients were treated at four different dosage levels of Compound 149: dose level 1 (100 mg), dose level 2 (200 mg), dose level 3 (300 mg), and dose level 4 (400 mg). The objective of the study was to assess safety and tolerability, to identify maximum tolerated dose, and to evaluate PK/PD.
Safety population included 19 subjects, and data is summarize in Table 6 below. Two subjects were assigned to the 100 mg cohort but treatment was not entered in the electronic data capture (EDC) at time of extract.

patients with CLL = assay: Efficacy evaluations in CLL patients; assay type: in vivo, human
Procedure: as §1
Patients evaluated in this study were treated for diseases or disorders selected from the group consisting of: chronic lymphocytic leukemia (CLL) with BTK C481 mutation (n 20); CLL without BTK C481 mutation (n˜20); mantle cell lymphoma (MCL), marginal zone lymphoma (MZL), Waldenstrom's macroglobulinemia (WM) (n˜20); follicular lymphoma (FL) (n˜20); and diffuse large B cell lymphoma (DLBCL) (n˜20). Heavily pretreated patient population, including double-refractory CLL patients.
Data shown in FIG. 6 confirms that Compound 149 is a potent BTK degrader to solve inhibitor resistance observed with prior therapy.

[3] = test system: patient with non-GCB (ABC subtype) DLBCL; assay: Response of a patient with non-GCB (ABC subtype) DLBCL (Lugano criteria, FDG-PET CT scan); assay type: in vivo, human; settings: 300 mg
Procedure: A heavily pre-treated patient with non-GCB (ABC subtype) DLBCL was enrolled in Compound 149 phase 1 dose-escalation. The patient was treated at a single dosage level of Compound 149: […] (300 mg) for a period of 5 months and ongoing. The objective of the study was to assess safety and tolerability, to identify maximum tolerated dose, and to evaluate PK/PD.
The patient's response was checked at 8 weeks and 16 weeks. […] Gradual BTK degradation was observed until day 8 day of receiving the 300 mg dose of Compound 149, wherein the maximum BTK degradation was achieved on the 8th day. Consistent with its design, Compound 149 also degraded Ikaros and Aiolos which is responsible for the compound's immunomodulatory activity. […] In the 16-week assessment image, maximum standard uptake value (Max SUV) reduced from 17.6 at screening to 2.5 at the 16-week assessment time with the Deauville five-point scale (5PS; Barrington et al., 2010, Eur J Nucl Med Mol Imaging 37 (10): 1824-33) reducing from 5 to 2.

[4] = test system: lymphoma cells harboring BTK-C481S mutation; assay: Killing of lymphoma cells harboring BTK-C481S mutation (FIG. 6); assay type: cell-based

## NC(=O)c1ncc(N2CCCCC2)nc1Nc1ccc(C2CCN(C[C@@H]3CCN(c4ccc5c(c4)C(=O)N(C4CCC(=O)NC4=O)C5=O)C3)CC2)cc1 (some centres unmarked) [Compound 149]
Ikaros
  Ikaros degradation: degraded
[1]
  degradation of mutant BTK: degrades multiple novel BTK mutations emerging post BTKi-treatment
[2]; 100 mg (N = 10)
  Anemia, Grade ≥ 3: 1 (10%) n (%)
  Clostridium difficile colitis, Grade ≥ 3: 0 (0%) n (%)
  Clostridium difficile infection, Grade ≥ 3: 0 (0%) n (%)
  Cognitive disorder, Grade ≥ 3: 0 (0%) n (%)
  Dyspnea, Grade ≥ 3: 0 (0%) n (%)
  Hypertension, Grade ≥ 3: 0 (0%) n (%)
  Neutropenia, Grade ≥ 3: 1 (10%) n (%)
  Pain in extremity, Grade ≥ 3: 0 (0%) n (%)
  Upper resp. tract infection, Grade ≥ 3: 0 (0%) n (%)
[2]; 200 mg (N = 6)
  Anemia, Grade ≥ 3: 1 (16.7%) n (%)
  Clostridium difficile colitis, Grade ≥ 3: 1 (16.7%) n (%)
  Clostridium difficile infection, Grade ≥ 3: 1 (16.7%) n (%)
  Cognitive disorder, Grade ≥ 3: 0 (0%) n (%)
  Dyspnea, Grade ≥ 3: 1 (16.7%) n (%)
  Hypertension, Grade ≥ 3: 1 (16.7%) n (%)
  Neutropenia, Grade ≥ 3: 3 (50%) n (%)
  Pain in extremity, Grade ≥ 3: 0 (0%) n (%)
  Upper resp. tract infection, Grade ≥ 3: 1 (16.7%) n (%)
[2]; 300 mg (N = 3)
  Anemia, Grade ≥ 3: 0 (0%) n (%)
  Clostridium difficile colitis, Grade ≥ 3: 0 (0%) n (%)
  Clostridium difficile infection, Grade ≥ 3: 0 (0%) n (%)
  Cognitive disorder, Grade ≥ 3: 1 (33.3%) n (%)
  Dyspnea, Grade ≥ 3: 0 (0%) n (%)
  Hypertension, Grade ≥ 3: 0 (0%) n (%)
  Neutropenia, Grade ≥ 3: 2 (66.7%) n (%)
  Pain in extremity, Grade ≥ 3: 1 (33.3%) n (%)
  Upper resp. tract infection, Grade ≥ 3: 0 (0%) n (%)
[2]; 300 mg, a CLL patient, cognitive AE believed related to immunomodulatory activity
  dose limiting toxicity: Dose limiting toxicity was observed
[2]; DLBCL patient, 300 mg, 5 months and ongoing
  dose limiting toxicity (DLT) or serious adverse event (SAE): no dose limiting toxicity (DLT) or serious adverse event (SAE) was observed
[2]; at 100 mg in a patient with MCL and at 200 mg in a patient with CLL
  atrial fibrillation adverse events: Two AEs of lower grade atrial fibrillation were observed
[2]; humans, 100 mg and 200 mg per dose
  tolerability / dose limiting toxicities: well-tolerated with no dose limiting toxicities
Patients with CLL; CLL patients with prior therapy (median of six prior treatments), 100 mg, FIG. 4
  clinical activity / benefit in CLL patients: durable benefit; also recorded: showed clinical activity
Patients with CLL; all evaluable CLL patients, FIG. 5
  nodal reductions and/or lymphocytosis: nodal reductions and/or lymphocytosis observed in all patients treated
Patients with CLL; evaluable CLL patients, FIG. 5
  responses in BTK inhibitor-resistant CLL patients: responses in patients with resistance mutations to covalent and non-covalent BTK inhibitors
[3]; DLBCL patient, 16-week assessment, 5 at screening
  Deauville five-point scale (5PS): 2
[3]; DLBCL patient, 16-week assessment, 17.6 at screening
  maximum standard uptake value (Max SUV): 2.5
[3]; heavily pre-treated non-GCB (ABC subtype) DLBCL patient
  response per Lugano criteria at 8 weeks: complete response
[3]; non-GCB (ABC subtype) DLBCL patient, FIG. 9
  response at the 16-week assessment (FDG-PET CT Scan Disease Assessment): complete confirmed response
[4]
  killing of lymphoma cells: kills lymphoma cells harboring BTK-C481S mutation
